{"source": "patent US20200352914A1", "about": "“METHODS OF TREATING HYPERTENSION WITH ACTIVATORS OF TIE-2” (Aerpio Pharmaceuticals, Inc., priority 2019, published 2020)", "key": {"recombinant human VE-PTP": {"molecular_target": "recombinant human VE-PTP (Homo sapiens, UniProt P23467)", "sequence (P23467 23-1997)": "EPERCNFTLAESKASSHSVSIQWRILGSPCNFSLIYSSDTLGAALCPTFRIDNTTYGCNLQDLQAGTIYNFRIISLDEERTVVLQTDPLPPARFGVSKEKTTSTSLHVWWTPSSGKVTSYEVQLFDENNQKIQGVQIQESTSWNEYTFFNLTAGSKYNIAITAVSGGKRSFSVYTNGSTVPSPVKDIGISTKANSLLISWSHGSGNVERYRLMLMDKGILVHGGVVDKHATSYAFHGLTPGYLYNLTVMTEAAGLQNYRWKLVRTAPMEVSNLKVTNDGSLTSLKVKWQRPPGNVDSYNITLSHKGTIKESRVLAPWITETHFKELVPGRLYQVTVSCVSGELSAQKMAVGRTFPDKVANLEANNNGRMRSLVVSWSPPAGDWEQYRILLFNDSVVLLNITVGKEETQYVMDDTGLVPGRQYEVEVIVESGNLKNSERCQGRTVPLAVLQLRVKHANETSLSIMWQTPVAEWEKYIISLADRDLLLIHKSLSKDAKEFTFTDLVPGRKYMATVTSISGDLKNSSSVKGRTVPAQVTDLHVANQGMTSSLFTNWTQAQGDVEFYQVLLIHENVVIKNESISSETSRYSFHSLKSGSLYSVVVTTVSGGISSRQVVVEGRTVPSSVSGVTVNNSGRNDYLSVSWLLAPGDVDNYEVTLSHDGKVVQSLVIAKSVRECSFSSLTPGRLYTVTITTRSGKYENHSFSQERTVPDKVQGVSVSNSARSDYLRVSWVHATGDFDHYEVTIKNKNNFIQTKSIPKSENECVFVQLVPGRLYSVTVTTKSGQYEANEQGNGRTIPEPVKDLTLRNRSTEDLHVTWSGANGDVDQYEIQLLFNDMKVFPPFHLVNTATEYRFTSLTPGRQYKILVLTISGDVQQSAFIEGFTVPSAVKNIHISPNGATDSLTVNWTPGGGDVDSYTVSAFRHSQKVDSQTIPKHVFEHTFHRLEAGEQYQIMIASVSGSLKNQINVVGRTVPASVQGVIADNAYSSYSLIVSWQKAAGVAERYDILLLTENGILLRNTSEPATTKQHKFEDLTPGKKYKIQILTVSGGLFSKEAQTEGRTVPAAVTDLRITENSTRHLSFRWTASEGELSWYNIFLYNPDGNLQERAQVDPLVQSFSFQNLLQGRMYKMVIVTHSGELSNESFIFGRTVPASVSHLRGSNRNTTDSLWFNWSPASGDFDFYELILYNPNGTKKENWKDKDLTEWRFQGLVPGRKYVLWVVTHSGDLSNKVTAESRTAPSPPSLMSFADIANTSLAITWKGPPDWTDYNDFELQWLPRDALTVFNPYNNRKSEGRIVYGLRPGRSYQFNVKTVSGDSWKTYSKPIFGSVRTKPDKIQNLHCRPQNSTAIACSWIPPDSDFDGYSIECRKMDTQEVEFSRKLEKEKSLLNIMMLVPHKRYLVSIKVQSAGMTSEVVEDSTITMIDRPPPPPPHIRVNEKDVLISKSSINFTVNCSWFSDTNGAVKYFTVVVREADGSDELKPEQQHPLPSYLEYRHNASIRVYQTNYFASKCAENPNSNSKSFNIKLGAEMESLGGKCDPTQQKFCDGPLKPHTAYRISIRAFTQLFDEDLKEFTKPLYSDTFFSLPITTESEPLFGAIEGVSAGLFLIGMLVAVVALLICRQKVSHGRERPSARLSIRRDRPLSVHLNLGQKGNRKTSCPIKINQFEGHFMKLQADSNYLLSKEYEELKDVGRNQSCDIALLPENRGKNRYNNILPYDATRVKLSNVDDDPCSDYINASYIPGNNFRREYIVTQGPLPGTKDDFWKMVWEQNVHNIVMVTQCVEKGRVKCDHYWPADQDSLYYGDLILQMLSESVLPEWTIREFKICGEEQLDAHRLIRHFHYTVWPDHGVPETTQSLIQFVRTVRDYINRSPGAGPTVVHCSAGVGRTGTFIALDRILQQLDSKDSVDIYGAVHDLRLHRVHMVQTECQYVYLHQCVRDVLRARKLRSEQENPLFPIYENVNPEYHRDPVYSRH", "experiment": "Human VE-PTP (HPTPβ) phosphatase assay on eNOS Tyr81", "format": "biochemical", "conditions": "pre-incubation with 10 μmol/L; cell-free", "protocol": "Confluent monolayers of human endothelial cells expressing FLAG-tagged eNOS were cultured overnight in MCDB131 containing 0.1% BSA and then stimulated with Yoda1 (1 μmol/L) for 30 minutes to elicit phosphorylation of eNOS on Tyr81. eNOS-FLAG immunoprecipitates were used as substrates to test the ability of recombinant human VE-PTP to dephosphorylate eNOS Tyr81 in a cell-free in vitro reaction. Briefly after washing the FLAG-eNOS, immunoprecipitates were suspended in phosphatase assay buffer containing Tris/HCl pH 7.5 (50 mmol/L), NaCl (150 mmol/L), EDTA (1 mmol/L), and EDTA-free protease inhibitors mix at room temperature. An aliquot of the eNOS-FLAG immunoprecipitate was immediately processed for immunoblotting (input) and the remainder was divided into 6 identical aliquots and incubated for up to 10 minutes at room temperature in phosphatase assay buffer containing DTT (3 mmol/L) and recombinant human VE-PTP (100 U/50 μl reaction). Experiments were performed in the presence of solvent (1% DMSO) or Compound 2 (10 μmol/L) and reactions were stopped by boiling samples for 10 minutes in SDS sample buffer. eNOS phosphorylation was then analyzed by SDS-PAGE and immunoblotting."}, "[1]": {"test_system": "endothelium-intact aortic rings from WT and Akita mice", "experiment": "Vascular reactivity of aortic rings from diabetic Ins2Akita mice and WT littermates (TABLE 29)", "set-up": "species or system mouse", "conditions": "10 μmol/L", "protocol": "(§1) Aortic rings from eight to ten-week old male C57/BL6 mice were used to investigate the effects of Compound 2 on endothelial function. Twelve to fourteen-week old male Ins2^Akita mice and non-diabetic littermate controls were used to study the effects of Compound 2 on diabetes-associated endothelial dysfunction. Myograph experiments were performed in modified Krebs-Henseleit solution. Aortae were dissected free of adhering tissue, cut into 2-mm segments, and mounted in 5-mL myograph chambers under a basal tension of 1 g. Relaxation to cumulatively increasing concentrations (0.001-100 μmol/L) of Compound 2 or solvent (DMSO) was assessed in endothelium-intact aortic segments pre-contracted with phenylephrine (1 μmol/L) in the absence or presence of N^ω-nitro-L-arginine methyl ester (L-NAME; 300 μmol/L).\nTo determine whether VE-PTP inhibition affects endothelial dysfunction that accompanies diabetes, aortic rings were isolated from 12-week old diabetic Ins2^Akita(Akita) mice and their non-diabetic littermates.\nFIG. 29 panels A-B illustrate the effects of Compound 2 on diabetes-induced endothelial dysfunction. FIG. 29 panel A illustrates the effects of Compound 2 on acetylcholine-induced relaxation of endothelium-intact aortic rings from WT and Akita mice."}, "[2]": {"test_system": "endothelium-intact aortic rings", "experiment": "Vascular reactivity of aortic rings from C57/BL6 mice (myograph, TABLE 28)", "set-up": "species or system mouse", "protocol": "as §1\nTo assess the role for VE-PTP in the regulation of vascular reactivity, endothelium-intact rings of murine aortae were incubated with increasing concentrations of Compound 2.\nFIG. 24 panels A-D illustrate the effect of Compound 2 on endothelial function. FIG. 24 panel A illustrates concentration dependent effect of Compound 2 on the tone of endothelium-intact aortic rings. Experiments were performed in the absence and presence of an eNOS inhibitor, L-NAME (300 μmol/L). FIG. 24 panels B-D illustrate the effect of solvent (Sol, DMSO) and Compound 2 (1, 3, or 10 μmol/L) on the contractile response to phenylephrine (PE; FIG. 24 panel B), and relaxation induced by either sodium nitroprusside (SNP; FIG. 24 panel C) or acetylcholine (ACh; FIG. 24 panel D). The dotted line in FIG. 24 panel D represents responses in endothelium-denuded aortic rings; n=5 mice/group."}, "eNOS": {"test_system": "eNOS", "experiment": "eNOS and Akt phosphorylation in human endothelial cells (immunoprecipitation, immunoblotting)", "format": "cell-based", "protocol": "Confluent monolayers of human endothelial cells expressing FLAG-tagged eNOS cultured overnight in MCDB131 containing 0.1% BSA and then incubated with increasing concentrations of Compound 2 (0.3-30 μmol/L) or solvent (DMSO) for 30 minutes. In separate experiments, human endothelial cells were cultured overnight in MCDB131 containing 0.1% BSA and then incubated treated with Compound 2 (30 μmol/L) or solvent for 30 minutes and then stimulated with Yoda1 (1 μmol/L) or solvent for an additional 30 minutes. To inhibit Src, cells were pre-incubated with PP2 (1 μmol/L) for 30 min before incubation with Compound 2 and stimulation with Yoda1. After two washes with cold PBS, cells were collected with the aid of cell scrapers in a lysis buffer containing Tris/HCl pH 7.5 (50 mmol/L), NaCl (150 mmol/L), Triton X-100 (1%), NaPPi (10 mmol/L), NaF (20 mmol/L), orthovanadate (2 mmol/L), okadaic acid (10 nmol/L), β-glycerophosphate (50 mmol/L), phenylmethylsulfonyl fluoride (230 μmol/L), and EDTA-free protease inhibitors mix. The cell mixture was incubated for 30 minutes at 4° C. with vortexing, followed by centrifugation at 13000 rpm for 10 minutes at 4° C. To assess the eNOS-VE-PTP interaction, the following modifications were applied: 1) cells were incubated with the lysis buffer for one hour on an end-over-end rocker at 4° C. and gently vortexed until no cell clumps were observed; 2) lysates were not centrifuged after lysis. FLAG-tagged eNOS was immunoprecipitated using 30 μL of packed Anti-FLAG M2 Affinity Gel per mg protein lysate overnight. The recovered immunoprecipitates were washed three times with the lysis buffer, eluted by boiling samples for 10 minutes in SDS sample buffer, and then analyzed by SDS-PAGE and immunoblotting.\nProtein samples were separated by SDS-PAGE and then transferred to […] nitrocellulose membranes. Membranes were incubated overnight with primary antibodies against phospho-Tyr81 eNOS, phospho-Ser1177 eNOS, phospho-Ser633 eNOS, eNOS, phospho-Ser473 Akt, Akt, ABL1, VE-PTP, GAPDH, β-actin, followed by species-specific secondary antibodies anti-IgG conjugated with HRP. Proteins were visualized by enhanced chemiluminescence."}, "[3]": {"conditions": "arteries precontracted with phenylephrine, n=5 mice/group"}, "[4]": {"conditions": "30 μmol/L 30 minutes, then Yoda1 1 μmol/L 30 min"}}}
{"smiles": "CCc1nc([C@H](Cc2ccc(NS(=O)(=O)O)cc2)NC(=O)[C@H](Cc2ccccc2)NC(=O)OC)cs1", "note": "[Compound 2]", "values": [{"measurement": "time-dependent dephosphorylation of eNOS Tyr81 by recombinant VE-PTP", "setting": "recombinant human VE-PTP", "value": "abolished"}, {"measurement": "acetylcholine-induced and NO-mediated relaxation in aortic rings from diabetic mice", "setting": "[1]; Ins2Akita mice", "value": "restored"}, {"measurement": "elevated phenylephrine-induced contraction of aortic rings", "setting": "[1]; Ins2Akita mice", "value": "not influenced"}, {"measurement": "acetylcholine-induced endothelium-dependent relaxation", "setting": "[1]; tissues from non-diabetic mice", "value": "potentiated responses"}, {"measurement": "phenylephrine-induced contractions and sodium nitroprusside-induced relaxations", "setting": "[2]; 1, 3, or 10 μmol/L, 30 minutes", "value": "Neither phenylephrine-induced contractions nor sodium nitroprusside-induced relaxations were affected"}, {"measurement": "acetylcholine-induced relaxations of endothelium-intact vessels", "setting": "[2]; 1, 3, or 10 μmol/L, concentration-dependent", "value": "significantly enhanced"}, {"measurement": "relaxation response in presence of eNOS inhibitor L-NAME", "setting": "[2]; L-NAME 300 μmol/L", "value": "abolished"}, {"measurement": "Emax of concentration-dependent relaxation", "setting": "[2]; [3]", "value": "73.4±2.9", "unit": "%"}, {"measurement": "pEC50 of concentration-dependent relaxation", "setting": "[2]; [3]", "value": "5.14±0.05", "unit": "log mol/L"}, {"measurement": "Yoda1-induced phosphorylation of Akt on Ser473 and eNOS on Ser1177", "setting": "eNOS; [4]", "value": "also increased"}, {"measurement": "Yoda1-induced phosphorylation of eNOS on Ser633", "setting": "eNOS; [4]", "value": "not affected"}, {"measurement": "Yoda1-induced phosphorylation of eNOS on Tyr81", "setting": "eNOS; [4]", "value": "markedly enhanced"}, {"measurement": "eNOS phosphorylation on Tyr81 and Ser1177", "setting": "eNOS; 0.3-30 μmol/L, 30 minutes", "value": "led to phosphorylation of eNOS on Tyr81 and Ser1177"}]}
